The values that follow are results of earlier work, collected in publication PMC8172013, “Carboxylesterase Notum Is a Druggable Target to Modulate Wnt Signaling” (Journal of Medicinal Chemistry, 2021).

The structures appear in SMILES notation. Like-named read-outs stand apart in the source and are kept apart here.

One series deals with bone formation. Set-up: method as in PMID 19072540, PMID 19932972. The conditions noted are these: ex vivo model of bone formation.
In series [1] the target is T1, Notum (Homo sapiens, UniProt Q6P988).
T1 sequence (Q6P988 20-496): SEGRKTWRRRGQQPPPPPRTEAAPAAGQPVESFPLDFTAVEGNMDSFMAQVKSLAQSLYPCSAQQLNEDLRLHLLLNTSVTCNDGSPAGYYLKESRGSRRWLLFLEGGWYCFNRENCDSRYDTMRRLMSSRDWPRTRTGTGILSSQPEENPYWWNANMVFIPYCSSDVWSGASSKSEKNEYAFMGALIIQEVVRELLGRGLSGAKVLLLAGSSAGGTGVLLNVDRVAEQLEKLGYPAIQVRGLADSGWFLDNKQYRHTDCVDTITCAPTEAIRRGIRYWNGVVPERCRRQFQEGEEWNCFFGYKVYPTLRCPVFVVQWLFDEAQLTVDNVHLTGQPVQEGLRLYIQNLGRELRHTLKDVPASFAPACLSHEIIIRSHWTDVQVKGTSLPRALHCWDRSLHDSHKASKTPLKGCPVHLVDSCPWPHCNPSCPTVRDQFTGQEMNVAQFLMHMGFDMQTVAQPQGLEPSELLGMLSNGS
The settings on record: OPTS assay.

Series [2] concerns the target T1, Notum. The conditions noted are these: TCF/LEF assay.
The target in series [3] is T1, Notum.
Series [4] deals with midshaft femur cortical thickness. The settings on record: mice, 3, 10, 30 mg/kg po daily, 25 days.
The conditions of series [5]: mouse, 10 mg/kg po.

As to `CC(C)(C)NC(=O)N1CCC[C@H]1C(=O)N1CCC(NS(=O)(=O)c2ccc(S(=O)(=O)c3ccccc3)cc2C(F)(F)F)CC1` [WAY-362692], the “increase in total bone area” value with bone formation was 75%. `Cc1cc(C(=O)O)c(C)n1-c1cccc(C(C)C)c1F` [Compound 60]: the IC50 (as a rule, the concentration at which inhibition is half-maximal) on Notum [1] was 0.15 µM.

For the molecule `Cc1sc2ncnc(SCC(=O)O)c2c1Cl` [Compound 37], on Notum [2], the EC50 (commonly the concentration at which the effect is half-maximal) is around 0.1 µM.

As for `O=c1[nH]nc(C2CCN(c3ccc(Cl)c(C(F)(F)F)c3)C2)o1` (centres unmarked) [Compound 63], on Notum [1], the IC50 is 4.2 µM. Regarding `CCCc1sc2ncnc(SCC(=O)O)c2c1Cl` [Compound 38], the concentration giving a half-maximal response (EC50) on Notum [2] was around 0.1 µM. As for `Cc1cc(C(=O)O)c(C)n1C1CC1` [Compound 58], the IC50 at Notum [1] was 6.3 µM.

Regarding `C#CCN1CCN(C(=O)ON2C(=O)C3CN(Cc4ccc(Cl)cc4)CCN3C2=O)c2ccccc21` (centres unmarked) [ABC99yne], the IC50 entry at Notum [3] (stated in words) is on record as “sub-micromolar”. On to `Cc1csc2c(SCC(=O)O)ncnc12` [Compound 36], for which, on Notum [1], the concentration for half-maximal inhibition (IC50) was 0.19 µM. Take `O=C(O)CSc1ncnc2c(C3CC3)c(Cl)sc12` [Compound 26]: the “midshaft femur cortical thickness” value in series [4] is “increases in midshaft femur cortical thickness at all doses tested”. On to `O=C(c1ccc(Cl)cc1)N1CCN2C(=O)N(OC(=O)N3CCOc4ccccc43)C(=O)C2C1` (centres unmarked) [ABC101], for which the EC50 on Notum [2] is above 5 µM. In addition, the IC50 at Notum [3] (competitive gel-based ABPP, read-out: Notum IC50) is above 10 µM. Turning to `Cc1c(Cl)sc2ncnc(SCC(=O)N3CC(=O)N(C)C3)c12` [Compound 40], the IC50 at Notum [1] is 0.0024 µM. Also, the plasma exposure entry in series [5] is “low plasma exposure”. Consider `O=C(C1CCN(c2ccc(Cl)c(C(F)(F)F)c2)C1)N1CC(F)(F)C1` (centres unmarked) [Compound 62], for which the 50% inhibitory concentration (IC50) on Notum [1] was 0.26 µM.
